From patent US6436999B1, “Diacyl-substituted guanidines, a process for their preparation, their use as medicine or diagnostic aid, and medicine containing them” (Hoechst Aktiengesellschaft, priority 1993, dated 2002)
Structures can show the parent of a compound that is named as a salt.

What was measured:
[1] = target: T1, Na^+/H^+ exchanger of rabbit erythrocytes (Oryctolagus cuniculus, UniProt P23791); assay: Inhibition of the Na+/H+ exchanger of rabbit erythrocytes (amiloride-sensitive sodium influx, flame photometry); type: cell-based; conditions: hyperosmolar salt/sucrose medium, pH 7.4, 37° C., Na^+ influx by flame photometry
T1 construct: endogenous in cells; host or cells: erythrocytes in whole blood from cholesterol-fed New Zealand White rabbits
T1 sequence (P23791 whole entry): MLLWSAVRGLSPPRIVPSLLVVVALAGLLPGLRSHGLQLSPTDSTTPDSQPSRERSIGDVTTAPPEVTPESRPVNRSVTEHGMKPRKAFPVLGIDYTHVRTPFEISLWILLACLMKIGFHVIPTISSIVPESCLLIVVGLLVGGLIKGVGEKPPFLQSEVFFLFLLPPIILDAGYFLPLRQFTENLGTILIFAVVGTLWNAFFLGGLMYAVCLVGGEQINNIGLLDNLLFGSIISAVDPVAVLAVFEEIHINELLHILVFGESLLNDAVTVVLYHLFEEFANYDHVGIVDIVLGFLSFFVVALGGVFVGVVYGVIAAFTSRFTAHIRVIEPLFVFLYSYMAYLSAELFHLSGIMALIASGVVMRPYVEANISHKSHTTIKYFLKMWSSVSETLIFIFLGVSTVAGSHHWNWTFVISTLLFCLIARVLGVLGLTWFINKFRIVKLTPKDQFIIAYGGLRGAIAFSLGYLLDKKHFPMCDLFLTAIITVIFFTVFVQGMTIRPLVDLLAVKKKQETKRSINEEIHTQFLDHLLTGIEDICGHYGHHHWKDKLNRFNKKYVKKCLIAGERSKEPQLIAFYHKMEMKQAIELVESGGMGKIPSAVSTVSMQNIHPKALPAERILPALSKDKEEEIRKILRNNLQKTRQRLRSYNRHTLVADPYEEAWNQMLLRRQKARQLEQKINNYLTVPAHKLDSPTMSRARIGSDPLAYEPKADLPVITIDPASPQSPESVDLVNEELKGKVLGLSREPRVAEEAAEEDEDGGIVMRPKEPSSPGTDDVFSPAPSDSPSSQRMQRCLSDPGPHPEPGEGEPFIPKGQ
Text: New Zealand White rabbits (Ivanovas) were given a standard diet containing 2% cholesterol for six weeks in order to activate Na^+/H^+ exchange and thus to be able to use flame photometry to determine the Na^+ influx into the erythrocytes via Na^+/H^+ exchange. The blood was removed from the aural arteries and rendered incoagulable by the addition of 25 IU of potassium heparin per ml. One part of each sample was used for the duplicate determination of the hematocrit by centrifugation. Aliquots of in each case 100 μl were employed for measuring the initial content of Na^+ in the erythrocytes.
In order to determine the amiloride-sensitive sodium influx, 100 μl of each blood sample were in each case incubated, at pH 7.4 and 37° C., in 5 ml of a hyperosmolar salt/sucrose medium (mmol/l: 140 NaCl, 3 KCl, 150 sucrose, 0.1 ouabain, 20 tris(hydroxymethyl)aminomethane). The erythrocytes were then washed three times with ice cold MgCl2/ouabain solution (mmol/l: 112 MgCl2, 0.1 ouabain) and hemolyzed in 2.0 ml of distilled water. The intracellular content of sodium was determined by flame photometry.
The nett influx of Na^+ was calculated from the difference between the initial sodium values and the sodium content of the erythrocytes following incubation. The amiloride-inhibitable sodium influx was given by the difference in the sodium content of the erythrocytes following incubation with and without 3×10^−4 mol/l amiloride. The same procedure was also used in the case of the compounds according invention.

Row | Compound | melting point | IC50 [1] [nM]
1 | N=C(NC(=O)CCc1ccccc1C(F)(F)F)NC(=O)CCc1ccccc1C(F)(F)F (as salt: hydrochloride) [Example 7, N,N′-Bis[3-(2-trifluoromethylphenyl)propionyl]guanidide] | 75 °C | 
2 | CC(C)c1ccc(C(=O)NC(=N)NC(=O)c2ccc(C(C)C)c(S(C)(=O)=O)c2)cc1S(C)(=O)=O [Example 1, Bis(3-methylsulfonyl-4-i-propylbenzoyl)guanidine] | 218 to 221 °C | 10000
3 | N=C(NC(=O)c1ccc(F)c(C(F)(F)F)c1)NC(=O)c1ccc(F)c(C(F)(F)F)c1 [Example 2, Bis(4-fluoro-3-trifluoromethylbenzoyl)guanidine] | 143 to 145 °C | 10000
4 | N=C(NC(=O)c1ccc(-n2ccnc2)c(C(F)(F)F)c1)NC(=O)c1ccc(-n2ccnc2)c(C(F)(F)F)c1 [Example 3, Bis[4-(l-imidazolyl)-3-trifluoromethylbenzoyl]guanidine] |  | 5000
5 | Cl.N=C(NC(=O)c1ccc(F)c(C(F)(F)F)c1)NC(=O)c1ccc(-n2ccnc2)c(C(F)(F)F)c1 [Example 4, N-[4-(1-Imidazolyl)-3-trifluoromethylbenzoyl]-N′-(4-fluoro-3-trifluoromethylbenzoyl)guanidine Hydrochloride] | 217 to 218 °C (dec.) | 3000
6 | N=C(NC(=O)C1CCc2ccccc2C1)NC(=O)C1CCc2ccccc2C1 (stereo not shown) [Example 5, N,N′-Bis(1,2,3,4-tetrahydronaphthalene-2-carbonyl)guanidide] | 99 °C | 300
7 | C/C(=C\c1ccccc1)C(=O)NC(=N)NC(=O)/C(C)=C/c1ccccc1 [Example 6, N,N′-Bis[(E)-2-methylcinnamoyl]guanidide] |  | 1100
8 | N=C(NC(=O)CCc1ccccc1C(F)(F)F)NC(=O)CCc1ccccc1C(F)(F)F [Example 7, N,N′-Bis[3-(2-trifluoromethylphenyl)propionyl]guanidide] |  | 2000
9 | CC(Cc1cc(F)ccc1F)C(=O)NC(=N)NC(=O)C(C)Cc1cc(F)ccc1F (stereo not shown) [Example 8, N,N′-Bis[3-(2,5-difluorophenyl)-2-methylpropionyl]guanidide] |  | 300
